Measured values from patent publication US20150119329A1, “MODULATION OF ANGIOTENSIN II RECEPTORS FOR THE PREVENTION AND TREATMENT OF MALARIA CEREBRAL” (NEW YORK UNIVERSITY, priority 2012, published 2015).
Peptide text beside a SMILES is read from it.

Assays:
[1] = tested on: human brain microvascular endothelial cells (HBMECs); test: iRBC-induced disruption of interendothelial junctions and detachment of HBMEC monolayer (nuclei count, PrestoBlue viability); type: cell-based; settings: P. falciparum iRBCs over HBMECs, 18 hours; compound 10^−5 M
Experimental: Cell viability assay. To assess the viability of the adherent HBMECs PrestoBlue Cell Viability Reagent (Invitrogen) was utilized. […] After 18 hours, the plates were washed twice with PBS, and PrestoBlue Cell Viability Reagent diluted 1:10 with medium, was added. Samples were then incubated for 3 hours at 37° C. PrestoBlue is reduced from blue resazurin to red resorufin in the presence of viable cells. The absorbance (595 nm) was read with a Victor X3 plate reader.

P. berghei ANKA [2] = test: Brain histopathology (hemorrhages, blood brain barrier integrity) in cerebral malaria mouse model; type: in vivo; settings: Losartan 10 mg/Kg/d, CGP-42112A 500 ng/min/kg
Experimental: Cerebral Malaria Experimental Mouse Model. Female C57BL/6J mice were obtained from Taconic Farms Inc. All mice were maintained under barrier conditions. Water and normal laboratory diet were available ad libitum. The infection was performed by inoculating i.p. 10^6 infected erythrocytes with P. berghei ANKA. All procedures involving animals conformed to the Guide for the Care and Use of Laboratory Animals published by US National Institutes of Health (NIH Publication No. 85-23, revised 1985) and were performed with the approval of the Animal Care and Use Committee at the University of New York. Alzet osmotic minipumps (Model 1002; ALZA Scientific Products, Mountain View, Calif., USA) were implanted into C57BL/6J mice at 4 months of age. Pumps were filled either with saline vehicle or solution of CGP-42112A (Sigma Chemical Co.) that delivered (subcutaneously) at 500 ng/min/kg for the duration of the study. Pumps were placed into the subcutaneous space of subcutaneous bupivacaine anesthetized mice through a small incision on the animal back slightly posterior of the shoulder blades that was closed with Reflex 7 mm wound closure system (ALZA Scientific Products, Mountain View, Calif., USA).

P. berghei ANKA [3] = test: Cerebral malaria experimental mouse model (development of cerebral malaria, mortality); type: in vivo; settings: C57BL/6J mice infected with P. berghei ANKA; Losartan 10 mg/Kg/d in drinking water; compared with vehicle treatment

Structure (SMILES)	damage to HBMECs caused by rupture and release of iRBCs, compared to control [1] [%]	quantification of hemorrhages in brain histological slices (P. berghei ANKA [2]; brains of infected mice (FIG. 4))	structure of the brain vessels and integrity of the blood brain barrier (BBB) (P. berghei ANKA [2]; brains of infected mice, Hematoxillin/Eosin, versus untreated groups)	reduction of mortality (P. berghei ANKA [3])
CC[C@H](C)[C@H](NC(=O)[C@@H]1CCCN1C(=O)[C@H](Cc1c[nH]cn1)NC(=O)[C@H](CCCCNC(=O)[C@H](CCCNC(=N)N)NC(=O)OCc1ccccc1)NC(=O)[C@H](Cc1ccc(O)cc1)NC(=O)c1cccnc1)C(=O)O [CGP-42112A, (25,35)-2-[[(25)-1-[(25)-2-[[(25)-6-[[(25)-5-(diaminomethylideneamino)-2-(phenylmethoxy-carbonylamino)pentanoyl]amino]-2-[[(25)-3-(4-hydroxyphenyl)-2-(pyridine-3-carbonylamino)propanoyl]amino]hexanoyl]amino]-3-(1H-imidazol-5-yl)propanoyl]pyrrolidine-2-carbonyl]amino]-3-methylpentanoic acid] (HELM PEPTIDE1{[O=C(c1cccnc1)[*:2]].Y.K.H.P.I}|PEPTIDE2{[O=C(OCc1ccccc1)[*:2]].R}$PEPTIDE1,PEPTIDE2,3:R3-2:R2$$$V2.0)	20	protective effect	better maintained	
CCCCc1nc(Cl)c(CO)n1Cc1ccc(-c2ccccc2-c2nnn[nH]2)cc1 [Losartan, (2-butyl-4-chloro-1-{[2′-(1H-tetrazol-5-yl)biphenyl-4-yl]methyl]-1H-imidazol-5-yl)methanol]				4-5 times
